Test: ABTS radical cation assay
Type: biochemical
Conditions: RoxP peptides, ABTS assay (Example 12), increased with concentration
Experimental: FIG. 4: RoxP antioxidant activity under adverse conditions. The ability of RoxP to reduce ABTS radical cations, denoted by a decrease in absorbance at 734 nm, was tested in multiple settings. Different concentrations of recombinant RoxP (rRoxP) (0.2-3.2 μM) in sodium phosphate buffer (20 mM, pH 7.4) (A), rRoxP (2.7 μM) incubated with salt solutions (B), pre-heated rRoxP (2.7 μM) incubated for 20 min in temperatures ranging from RT to 98° C. and allowed to cool down to ambient temperature prior to activity measurements (C), or rRoxP (2 μM) stored at room temperature for up to 2 weeks (D) were added to a solution of pre-formed ABTS radicals and the absorbance recorded after 30 sec.
The reduction of pre-formed ABTS radical cations in the presence of RoxP was analysed using a spectrophotometric assay previously described by Re et al. (1999 Free Radic Biol Med 26:1231-1237). 2,2′-azinobis(3-ethylbenzothiazoline-6-sulfonic acid) diammonium salt (ABTS) (Sigma-Aldrich) was initially dissolved in ddH2O to a concentration of […]. Potassium persulfate (Merck KGaA, Darmstadt, Germany) was subsequently added to a final concentration of 2.45 mM and the resulting solution kept dark and incubated overnight at RT. Formed ABTS radicals were diluted with PBS (pH 7.4) until reaching an absorbance of approximately 0.7 at 734 nm. Antioxidants (1.7 μM) were added (1:9 v/v) and the absorbance spectrum 500 to 900 nm recorded after 30 sec.

Sequence | antioxidant activity
VRADGYQESMVTRVLDDK (Cutibacterium acnes) [RoxP-Peptide 1] | display antioxidant activity
RTLSYCAYPHYVN (Cutibacterium acnes) [RoxP-Peptide 2] | display antioxidant activity

Source: US20220000762A1, “COMPOSITIONS FOR TREATING OXIDATIVE STRESS-ASSOCIATED SKIN DISEASES AND SKIN AGEING AND DIAGNOSIS OF OXIDATIVE STRESS-ASSOCIATED SKIN DISEASES” (priority 2019, published 2022)
